Columns and labels:
Plasma stability = format: in vitro ADME; conditions: male Sprague-Dawley rat plasma, 6 μL of 1 mM compound (10% DMSO) in 27 μL plasma, 37°C, 0-24 h, UPLC-MS, one-phase decay, mean ± SEM of at least three experiments, read-out: Plasmatic half-life t1/2 (±SEM)
Description: The degradation was quenched by adding 140 μL of 1% formic acid in an acetonitrile-ethanol (1:1) solution containing 0.25 mM of N,N-dimethylbenzamide (used as an internal standard). This mixture was initially transferred to an Impact Protein Precipitation filter plate (Phenomenex, California), the filtrates from which were subsequently collected in a second 96-well UPLC plate. Both plates were centrifuged at 500 g for 10 min while maintaining a temperature of 4°C. The filtrates were then diluted with 30 μL of distilled water and processed for analysis using an Acquity UPLC-MS system class H (using an Acquity UPLC protein BEH C18 column that measured 2.1 mm × 50 mm and had 1.7 μm particles with pores 130 Å in width). The peptide half-life, derived from the degradation curve, was calculated using the exponential one-phase decay function in GraphPad Prism 9. Degradation was estimated by comparing the mass spectrum at each point with those at the zero-minute mark. The data were presented as a mean ± SEM of at least three unique experiments, each performed in singlicate.

AT1R [1] = molecular target: T1, AT1R (Homo sapiens, UniProt P30556); assay: β-arrestin2 recruitment BRET (β-arrestin2-RLucII/rGFP-CAAX) in HEK293 cells expressing AT1R; format: cell-based; parameters: expressed in transfected cells; host or cells: HEK293 cells, transient PEI transfection; conditions: for Emax βarr2 (% AngII): HEK293/AT1R, β-arrestin2 BRET, response of the ligand at 10 μM, normalised to AngII; for EC50: HEK293 cells transiently expressing AT1R, β-arrestin2-RLucII/rGFP-CAAX BRET, read 10 min after ligand, mean ± SEM of at least three to five independent experiments, SEM, read-out: EC50 βarr2
T1 sequence (P30556 1-359): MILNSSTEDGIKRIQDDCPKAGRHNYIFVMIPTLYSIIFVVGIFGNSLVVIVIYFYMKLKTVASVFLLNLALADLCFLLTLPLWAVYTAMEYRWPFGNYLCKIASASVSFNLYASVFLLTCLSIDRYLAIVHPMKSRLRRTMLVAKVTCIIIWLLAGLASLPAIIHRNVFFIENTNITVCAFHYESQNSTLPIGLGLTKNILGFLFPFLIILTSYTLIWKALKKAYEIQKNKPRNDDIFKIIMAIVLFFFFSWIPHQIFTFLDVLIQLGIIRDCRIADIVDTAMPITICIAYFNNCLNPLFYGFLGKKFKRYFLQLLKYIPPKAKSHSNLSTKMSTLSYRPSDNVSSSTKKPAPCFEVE
From the text: (§1) We utilized a clonal cell line HEK293, referred to hereafter as HEK293 cells, which has been previously described.[7],[8] As a gracious gift from A. Inoue (Tohoku University, Sendai, Miyagi, Japan), CRISPR Gαq/11 and Gα12/13 knockout cell lines (ΔGq/11 and ΔG12/13, respectively), were derived as previously explained.[48] In brief, a CRISPR-Cas9 system was used to target either GNAQ and GNA11 or GNA12 and GNA13 genes in HEK293T cells simultaneously to generate the Gαq/11 and Gα12/13 knockout cell lines. For the production of adenovirus, we utilized HEK293A cells. All cells were grown in DMEM supplemented with 10% FBS and Penicillin-Streptomycin-L-Glutamine (10000 IU penicillin, 10000 µg/mL Streptomycin, 200 mM L-Glutamine) at 37°C in T175 flasks under a 5% CO2 humidified chamber. Periodic testing was carried out for mycoplasma contamination (ABM™, Mycoplasma PCR Detection kit). For all biosensors used, cells underwent transfection with the PEI reagent, employing a PEI:DNA ratio of 3:1. For the Gαq biosensor, HEK293 cells were transfected with the plasmids coding for Gαq-RLucII (120 ng), Gβ1 (3000 ng), Gγ1-GFP10 (3000 ng), human AT1 (3000 ng) and Salmon sperm DNA (SSD) (880 ng). For the β-arrestin2 recruitment assay, HEK293 cells were transfected with the plasmids coding for 120 ng β-arrestin-2-RLucII, 3000 ng AT1, 3000 ng rGFP-CAAX, and 3880 ng SSD. For the measurement of PKC, HEK293 cells were transfected with 3000 ng AT1, 600 ng PKC-c1b, and 6400 ng SSD. […] 100 µL of the cell/DNA mixture was added to white 96-well plates and incubated at 37°C at 5% CO2 for 48 h. For the Rho assay, ΔG12/13 cells were seeded at a density of 9,000 cells per well in poly-ornithine-coated white 96-well plates and transfected the following day. In brief, 1 μg of total DNA in 100 μL of PBS was mixed with 100 μL of PBS containing 3 μL of 1 mg/mL PEI. For Rho signaling, 150 ng of AT1R DNA with 25 ng of PKN-RBD-RlucII [8], and 100 ng of rGFP-CAAX were used. Empty pcDNA was used to reach 1 µg of the total DNA amount in 100 μL of PBS. The DNA was then mixed with 100 μL of PBS containing 3 μL of 1 mg/mL PEI. After a 20-min incubation, the DNA/PEI complexes were dispensed into cells in 96-well plates (15 µL/well), and the experiment was carried out 48 h post-transfection.
(§2) On the day of the experiment, each well was washed with 80 µL of Tyrode’s buffer (140 mM NaCl, 2.7 mM KCl, 1 mM CaCl2, 12 mM NaHCO3, 5.6 mM D-glucose, 0.5 mM MgCl2, 0.37 mM NaH2PO4, 25 mM Hepes (pH 7.4)). This was followed by incubation for 1 h in Tyrode’s buffer at room temperature. For the Gαq, β-arrestin-2, and PKC biosensors used in HEK293 cells, coelenterazine 400A (at a final concentration of 5 μM) was added 10 min before stimulation. Cells were then stimulated with increasing doses of the indicated ligand, and BRET signals were measured using a Tristar2 (Berthold) microplate reader 10 min later. For the PKC and Rho biosensors in VSMCs, and the Rho biosensor in ΔG12/13 cells, cells were similarly stimulated with ligands for 1 min, 1 min 30 s, and 3 min, respectively, before BRET measurement. […] BRET signals were then measured using a Synergy2 (BioTek) microplate reader. The applied filter set was 410/80 nm and 515/30 nm, designed to detect the light emissions of RlucII (Renilla luciferase) (donor) and rGFP (acceptor), respectively.

AT1R [2] = molecular target: T1, AT1R; assay: Gαq activation BRET (GABY sensor) in HEK293 cells expressing AT1R; format: cell-based; parameters: expressed in transfected cells; host or cells: HEK293 cells, transient PEI transfection; conditions: for Emax Gαq (% AngII): HEK293/AT1R, GABY BRET sensor, response of the ligand at 10 μM, normalised to AngII; for EC50: HEK293 cells transiently expressing human AT1R, Gαq-RlucII/Gβ1/Gγ1-GFP10 (GABY) BRET sensor, BRET read 10 min after ligand, mean ± SEM of at least three to five independent experiments
From the text: as §1, §2

CC[C@H](C)[C@H](NC(=O)[C@H](Cc1ccc(O)cc1)NC(=O)[C@@H](NC(=O)[C@H](CCCNC(=N)N)NC(=O)[C@@H](N)CC(=O)O)C(C)C)C(=O)N[C@@H](Cc1c[nH]cn1)C(=O)N1CCC[C@H]1C(=O)N[C@@H](Cc1ccccc1Cl)C(=O)O [29a]
half-life at 182 µM (Plasma stability): 32 ± 3 min

CC[C@H](C)[C@H](NC(=O)[C@H](Cc1ccc(O)cc1)NC(=O)[C@@H](NC(=O)[C@H](CCCNC(=N)N)NC(=O)[C@@H](N)CC(=O)O)C(C)C)C(=O)N[C@@H](Cc1c[nH]cn1)C(=O)N1CCC[C@H]1C(=O)N[C@H](C(=O)O)C(c1ccccc1)c1ccccc1 [compound 15]
Emax βarr2 (% AngII) (AT1R [1]): 109 % AngII
EC50 (AT1R [1]): 6.7 ± 0.8 nM
Emax Gαq (% AngII) (AT1R [2]): 99 % AngII
EC50 (AT1R [2]; SEM): 7.9 ± 1.7 nM

CC[C@H](C)[C@H](NC(=O)[C@H](Cc1ccc(O)cc1)NC(=O)[C@@H](NC(=O)[C@H](CCCNC(=N)N)NC(=O)[C@@H](N)CC(=O)O)C(C)C)C(=O)N[C@@H](Cc1c[nH]cn1)C(=O)N1CCC[C@H]1C(=O)N[C@@H](Cc1cscn1)C(=O)O [compound 20]
Emax βarr2 (% AngII) (AT1R [1]): 97 % AngII
EC50 (AT1R [1]): 1.9 ± 0.3 nM
Emax Gαq (% AngII) (AT1R [2]): 29 % AngII
EC50 (AT1R [2]; SEM): 14 ± 13 nM

C=CCOc1ccc(C[C@H](NC(=O)[C@@H]2CCCN2C(=O)[C@H](Cc2c[nH]cn2)NC(=O)[C@@H](NC(=O)[C@H](Cc2ccc(O)cc2)NC(=O)[C@@H](NC(=O)[C@H](CCCNC(=N)N)NC(=O)[C@@H](N)CC(=O)O)C(C)C)[C@@H](C)CC)C(=O)O)cc1 [compound 10]
Emax βarr2 (% AngII) (AT1R [1]): 100 % AngII
EC50 (AT1R [1]): 7.4 ± 1.9 nM
Emax Gαq (% AngII) (AT1R [2]): 48 % AngII
EC50 (AT1R [2]; SEM): 17 ± 10 nM

CC[C@H](C)[C@H](NC(=O)[C@H](Cc1ccc(O)cc1)NC(=O)[C@@H](NC(=O)[C@H](CCCNC(=N)N)NC(=O)[C@@H](N)CC(=O)O)C(C)C)C(=O)N[C@@H](Cc1c[nH]cn1)C(=O)N1CCC[C@H]1C(=O)N[C@@H](COCc1ccccc1)C(=O)O [compound 16]
Emax βarr2 (% AngII) (AT1R [1]): 87 % AngII
EC50 (AT1R [1]): 3 ± 0.5 nM
Emax Gαq (% AngII) (AT1R [2]): 26 % AngII
EC50 (AT1R [2]): > 10000 nM
EC50 (AT1R [2]; SEM): 2.3 ± 4 nM

CC[C@H](C)[C@H](NC(=O)[C@H](Cc1ccc(O)cc1)NC(=O)[C@@H](NC(=O)[C@H](CCCNC(=N)N)NC(=O)[C@@H](N)CC(=O)O)C(C)C)C(=O)N[C@@H](Cc1c[nH]cn1)C(=O)N1CCC[C@H]1C(=O)N[C@@H](Cc1cccnc1)C(=O)O [compound 18]
Emax βarr2 (% AngII) (AT1R [1]): 90 % AngII
EC50 (AT1R [1]): 3.7 ± 0.7 nM
Emax Gαq (% AngII) (AT1R [2]): 31 % AngII
EC50 (AT1R [2]; SEM): 22 ± 11 nM

CC[C@H](C)[C@H](NC(=O)[C@H](Cc1ccc(O)cc1)NC(=O)[C@@H](NC(=O)[C@H](CCCNC(=N)N)NC(=O)[C@@H](N)CC(=O)O)C(C)C)C(=O)N[C@@H](Cc1c[nH]cn1)C(=O)N1CCC[C@H]1C(=O)N[C@@H](Cc1ccc(-c2ccccc2)cc1)C(=O)O [compound 13]
Emax βarr2 (% AngII) (AT1R [1]): 98 % AngII
EC50 (AT1R [1]): 15 ± 4 nM
Emax Gαq (% AngII) (AT1R [2]): 45 % AngII
EC50 (AT1R [2]; SEM): 16 ± 12 nM
